The text below walks through data of patent US20250163032A1, “NOVEL MOLECULES AS INHIBITORS OF DNA DAMAGE REPAIR PATHWAY” (VRise Therapeutics, Inc., priority 2023, published 2025).

Series [1] addresses USP1/UAF1 (Homo sapiens, UniProt O94782). Put plainly: USP1/UAF 1 assay (ubiquitin-rhodamine110 fluorometric deubiquitinase assay). In kind it is biochemical. The following applies: for IC50: 1 nM USP1/UAF1, 150 nM Ub-Rho, read-out: Biochemical assay IC50; for inhibition at 1 µM: read-out: Biochemical assay % inhibition @1 μM; for inhibition at 10 µM: read-out: Biochemical assay % inhibition @10 μM. How it is done: Test-1: USP1/UAF 1 Assay:
Deubiquitinase activity of USP1/UAF1 was monitored in a fluorometric assay using ubiquitin-rhodamine110 as substrate. Briefly, enzymatic reactions were conducted in an assay buffer composed of 50 mM HEPES, pH 7.8, 0.5 mM EDTA, 100 mM NaCl, 1 mM TCEP, 0.1 mg/mL BSA, and 0.01% Tween-20 that contained 1 nM USP1/UAF1. Compounds were tested at desired concentrations. The plates were incubated for 15 min to attain equilibrium, and then the enzymatic reaction was initiated by dispensing 150 nM Ub-Rho solution. Fluorescence measurement was performed in a high throughput CCD imager, where kinetic measurements of rhodamine fluorescence were acquired using a 480 nm excitation/540 nm emission filter set. The change in fluorescence intensity over a 5-minute reaction period (typically associated with less than 10% substrate conversion) was normalized against no-inhibitor and no-enzyme controls and the resulting percent inhibition data were fitted to a sigmoidal dose response using a four-parameter Hill equation. Data was be analysed and percent inhibition and/or IC50 for each test compound is calculated accordingly.

Series [2] deals with MD-MBA-436. Put plainly: Cell viability assay (CTG assay). Type of series: cell-based, human. The settings on record: 7th day; for inhibition at 10 µM / IC50: Homo sapiens. How it is done:
Test 5: Cell Viability Assay (CTG Assay):
Growth inhibition assays was carried out using […] supplemented media. Cells were seeded at a desired concentration of 1000-6,000 cells/well in a well plate with desired number of wells. Test compounds at a desired concentration range were added after 24 hours. Growth was assessed using the Cell Titer-Glo (CTG, Cell Signaling) for measuring reduction at 7th day after the addition of test compound chemiluminescence values were read by a plate reader. Data was be analysed and percent inhibition and/or IC50 for each test compound is calculated accordingly.

Series [3] can be described thus: Metabolic stability, human liver microsomes. In kind it is in vitro ADME. The following applies: pH 7.4, 1 μM test item, 1 mM NADPH, 60 minutes. As for the experimental part:
(§1) Test-8: Metabolic Stability
(§2) Metabolic stability studies were conducted using mouse, rat, and human liver microsomes. The protocol for the studies with mouse and human liver microsomes (Gibco-Thermo) is provided below.
(§3) In brief, 0.25 mg protein was preincubated in phosphate buffer (pH˜7.4) for 5 min at 37° C. and then added with 1 μM test item followed by addition of 1 mM NADPH (cof actor) and incubated further over a period 60 minutes in duplicate. The reaction mixture was terminated with acetonitrile containing an internal standard and centrifuged further to analyse the test item remaining in the supernatant by LC-MS/MS at different intervals. The percent parent compound remaining was calculated in comparison with similar samples terminated at 0 minutes.
On the technique in general: Liver microsomes are vesicles of endoplasmic reticulum, rich in cytochrome P450 enzymes.

Series [4] is described as follows: Metabolic stability, mouse liver microsomes. Type of series: in vitro ADME. The following applies: pH 7.4, 1 μM test item, 1 mM NADPH, 60 minutes. How it is done:
as §1, §2, §3

Series [5] deals with NCI-H1792. Put plainly: Cell viability assay (MTT assay), NCI-H1792. In kind it is cell-based. The following applies: Homo sapiens, tested at 10 uM, 168 hours (Test-3). As for the experimental part:
Test-3: Cell Viability Assay (MTT Assay):
Cell viability assay was carried out using 10% FBS supplemented media. Cells were seeded at desired density in 96 well plate and incubated in a humidified CO2 incubator. After 24 hours of plating, test compounds at desired concentration range were added to the plates and incubated in the CO2 incubator for 168 hours. Post 168 hrs treatment, 12.5 μL of MTT was added to all wells including DMSO control. MTT treated plates were incubated further for 3 hours and MTT crystals were dissolved using 125 μL of DMSO. Absorbance was read on a BIO-RAD iMark Microplate plate reader at a wavelength of 570 nm. Data was analysed and percent inhibition (IC50) due to the test compound compared to the control was calculated using GraphPad Prism.
For orientation: Tetrazolium assays rely on reduction of a dye to a coloured formazan, in cell work by metabolically active cells.

In general, IC50 refers to the midpoint of a concentration-inhibition curve. The inhibition is the change of the read-out against control, counted positive when it falls. Broadly, the half-life is the time needed for the level to fall by half in the phase considered.

Chain of USP1/UAF1 (O94782 whole entry): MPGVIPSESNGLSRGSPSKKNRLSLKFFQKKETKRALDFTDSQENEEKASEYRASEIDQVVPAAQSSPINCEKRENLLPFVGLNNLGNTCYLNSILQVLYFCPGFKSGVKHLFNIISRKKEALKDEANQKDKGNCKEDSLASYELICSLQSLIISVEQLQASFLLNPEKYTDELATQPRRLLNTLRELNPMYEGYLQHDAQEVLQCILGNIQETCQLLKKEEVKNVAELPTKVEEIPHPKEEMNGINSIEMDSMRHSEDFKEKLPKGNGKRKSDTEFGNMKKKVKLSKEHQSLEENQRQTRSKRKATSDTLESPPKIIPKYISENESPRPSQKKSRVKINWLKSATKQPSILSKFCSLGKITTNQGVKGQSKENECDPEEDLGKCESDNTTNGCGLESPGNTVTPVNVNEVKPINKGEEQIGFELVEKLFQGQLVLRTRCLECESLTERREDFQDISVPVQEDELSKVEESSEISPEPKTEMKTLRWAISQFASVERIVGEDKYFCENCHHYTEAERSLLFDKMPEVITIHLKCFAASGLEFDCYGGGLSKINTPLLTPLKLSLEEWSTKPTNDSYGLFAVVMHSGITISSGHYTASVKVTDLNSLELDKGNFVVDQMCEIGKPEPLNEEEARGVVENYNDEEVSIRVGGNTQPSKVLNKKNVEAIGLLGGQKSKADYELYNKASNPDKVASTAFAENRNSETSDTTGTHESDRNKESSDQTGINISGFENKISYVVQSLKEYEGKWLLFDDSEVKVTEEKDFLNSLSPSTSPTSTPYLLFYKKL
Chain of USP1/UAF1 (Q8TAF3 whole entry partner): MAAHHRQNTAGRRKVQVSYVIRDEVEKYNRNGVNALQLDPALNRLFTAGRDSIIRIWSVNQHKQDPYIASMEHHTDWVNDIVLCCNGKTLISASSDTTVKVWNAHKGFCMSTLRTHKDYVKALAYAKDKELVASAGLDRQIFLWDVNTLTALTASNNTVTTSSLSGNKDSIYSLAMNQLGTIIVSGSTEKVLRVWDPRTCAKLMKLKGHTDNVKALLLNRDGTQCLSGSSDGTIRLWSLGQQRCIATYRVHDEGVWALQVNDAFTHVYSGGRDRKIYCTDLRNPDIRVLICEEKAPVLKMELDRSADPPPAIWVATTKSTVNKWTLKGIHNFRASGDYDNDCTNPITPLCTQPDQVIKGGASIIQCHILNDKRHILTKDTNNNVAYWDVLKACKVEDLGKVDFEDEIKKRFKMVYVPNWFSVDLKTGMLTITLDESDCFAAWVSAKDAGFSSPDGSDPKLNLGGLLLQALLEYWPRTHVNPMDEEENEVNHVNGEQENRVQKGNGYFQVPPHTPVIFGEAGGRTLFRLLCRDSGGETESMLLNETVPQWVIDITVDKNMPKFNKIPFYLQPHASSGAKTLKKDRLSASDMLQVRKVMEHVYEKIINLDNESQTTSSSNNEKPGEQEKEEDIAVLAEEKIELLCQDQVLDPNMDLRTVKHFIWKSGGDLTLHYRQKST

Regarding `COc1ncnc(C2CC2)c1-c1nc(NCc2ccc(-c3nc(C(F)(F)F)cn3C)cc2)c2c(c1C#N)CCC2` [Example 2, 3-(4-cyclopropyl-6-methoxypyrimidin-5-yl)-1-((4-(1-methyl-4-(trifluoromethyl)-1H-imidazol-2-yl)benzyl)amino)-6,7-dihydro-5H-cyclopenta[c]pyridine-4-carbonitrile], the IC50 in series [1] lay in the range of 0.1 to 1 µM. Further, the inhibition at 10 µM in series [2] (@10 μM) is 50 to 75%. The half-life at 1 μM in series [3] worked out at 20.4 min.

For `CC(C)c1ccccc1-c1nc2c(c(NCc3ccc(-c4nc(C(F)(F)F)cn4C)cc3)n1)CCC2` [Example 3, 2-(2-isopropylphenyl)-N-(4-(1-methyl-4-(trifluoromethyl)-1H-imidazol-2-yl)benzyl)-6,7-dihydro-5H-cyclopenta[d]pyrimidin-4-amine], the IC50 in series [1] and in series [2] was < 0.05 µM each time. The half-life at 1 μM is 14.4 min in series [4] and 14 min in series [3].

As for `CC(C)c1ccccc1-c1nc(NCc2ccc(-c3nc(C(F)(F)F)cn3C)cc2)c2c(c1C#N)CCC2` [Example 4, 3-(2-isopropylphenyl)-1-((4-(1-methyl-4-(trifluoromethyl)-1H-imidazol-2-yl)benzyl)amino)-6,7-dihydro-5H-cyclopenta[c]pyridine-4-carbonitrile], the IC50 is 0.05 to 0.1 µM in series [1] and ≥ 1 µM in series [2]. Also, the half-life at 1 μM in series [4] came to 7.71 min; in series [3], 7.13 min.

Take `CC(C)c1ccccc1-c1nc2c(c(NCc3ccc(-c4nc(C(F)(F)F)cn4C(C)C)cc3)n1)CCC2` [Example 9, N-(4-(1-isopropyl-4-(trifluoromethyl)-1H-imidazol-2-yl)benzyl)-2-(2-isopropylphenyl)-6,7-dihydro-5H-cyclopenta[d]pyrimidin-4-amine]: the IC50 in series [1] was < 0.05 µM. The compound further had a half-life at 1 μM in series [3] of 10.5 min.

Turning to `COc1ncnc(C2CC2)c1-c1nc2c(c(NCc3ccc(-c4nc(C(F)(F)F)cn4C(C)C)cc3)n1)CCC2` [Example 10, 2-(4-cyclopropyl-6-methoxypyrimidin-5-yl)-N-(4-(1-isopropyl-4-(trifluoromethyl)-1H-imidazol-2-yl)benzyl)-6,7-dihydro-5H-cyclopenta[d]pyrimidin-4-amine], the half-maximal inhibitory concentration (IC50) in series [1] and in series [2] was < 0.05 µM each time. Besides, the half-life at 1 μM amounted to 47 min in series [4] and 134 min in series [3].

Turning to `CC(C)n1cc(C(F)(F)F)nc1-c1ccc(CNc2nc(-c3c(OC(F)F)ncnc3C3CC3)nc3c2CCC3)cc1` [Example 11, 2-(4-cyclopropyl-6-(difluoromethoxy)pyrimidin-5-yl)-N-(4-(1-isopropyl-4-(trifluoromethyl)-1H-imidazol-2-yl)benzyl)-6,7-dihydro-5H-cyclopenta[d]pyrimidin-4-amine], the IC50 in series [1] was < 0.05 µM. Also, the “MD-MBA-436 % inhibition@10 μM” value in series [2] (@10 μM) is “A#”. In series [4], the half-life at 1 μM amounted to 45.5 min.

On to `COc1ncnc(C2CC2)c1-c1nc2c(c(N(Cc3ccc(-c4nc(C(F)(F)F)cn4C)cc3)C(N)=O)n1)CCC2` [Example 12, 1-(2-(4-cyclopropyl-6-methoxypyrimidin-5-yl)-6,7-dihydro-5H-cyclopenta[d]pyrimidin-4-yl)-1-(4-(1-methyl-4-(trifluoromethyl)-1H-imidazol-2-yl)benzyl)urea], for which the inhibition at 1 µM in series [1] was > 75%. In series [2] (@10 μM), the inhibition at 10 µM fell in the range of 50 to 75%. Further, the half-life at 1 μM in series [4] came out at 40.2 min; in series [3], 9 min.

In the case of `CC(C)c1ccccc1-c1nc2c(c(N(Cc3ccc(-c4nc(C(F)(F)F)cn4C(C)C)cc3)C(=O)N(C)C)n1)CCC2` [Example 14, 1-(4-(1-isopropyl-4-(trifluoromethyl)-1H-imidazol-2-yl)benzyl)-1-(2-(2-isopropylphenyl)-6,7-dihydro-5H-cyclopenta[d]pyrimidin-4-yl)-3,3-dimethylurea], the inhibition at 1 µM in series [1] lay within 25 to 50%. This compound also had a half-life at 1 μM in series [3] of 3.21 min.

As to `COc1ncnc(C2CC2)c1-c1nc(NCc2ccc(-c3nc(C(F)(F)F)cn3C)cc2)c2[nH]cnc2n1` [Example 16, 2-(4-cyclopropyl-6-methoxypyrimidin-5-yl)-N-(4-(1-methyl-4-(trifluoromethyl)-1H-imidazol-2-yl)benzyl)-7H-purin-6-amine], the IC50 in series [1] lay within 0.05 to 0.1 µM. In addition, in series [2] (@10 μM), the inhibition at 10 µM is 50 to 75%. The half-life at 1 μM is ≥ 230 min in series [4] and ≥ 700 min in series [3].

As to `COc1ncnc(C2CC2)c1-c1nc2c(c(NCc3ccc(-c4nc(C(F)(F)F)cn4C)cc3)c1C#N)CCC2` [Example 21, 2-(4-cyclopropyl-6-methoxypyrimidin-5-yl)-4-((4-(1-methyl-4-(trifluoromethyl)-1H-imidazol-2-yl)benzyl)amino)-6,7-dihydro-5H-cyclopenta[b]pyridine-3-carbonitriles], the IC50 in series [1] lay within 0.1 to 1 µM. In addition, the inhibition at 10 µM in series [2] (@10 μM) was in the range of 50 to 75%. Also, in series [3], the half-life at 1 μM was determined as 52.7 min.

`COc1ncnc(C2CC2)c1-c1nc2c(c(OCc3ccc(-c4nc(C(F)(F)F)cn4C)cc3)n1)CCC2` [Example 24, 2-(4-cyclopropyl-6-methoxypyrimidin-5-yl)-4-((4-(1-methyl-4-(trifluoromethyl)-1H-imidazol-2-yl)benzyl)oxy)-6,7-dihydro-5H-cyclopenta[d]pyrimidine] displayed an inhibition at 10 µM in series [2] (@10 μM) of 75 to 100%. Moreover, the results for the half-life at 1 μM in series [4] and in series [3] were 22.6 min and 227 min, respectively.

Consider `COc1ncnc(C2CC2)c1-c1nc(OCc2ccc(-c3nc(C(F)(F)F)cn3C)cc2)c2[nH]cnc2n1` [Example 26, 2-(4-cyclopropyl-6-methoxypyrimidin-5-yl)-6-((4-(1-methyl-4-(trifluoromethyl)-1H-imidazol-2-yl)benzyl)oxy)-7H-purine], for which, in series [1], the inhibition at 10 µM is > 75%. The half-life at 1 μM in series [4] was determined as 284 min; in series [3], 683 min.

With `COc1ncccc1-c1nc(NCc2ccc(-c3nc(C(F)(F)F)cn3C)cc2)c2ncn(C3CCCCO3)c2n1` (stereo not drawn) [Example 31, 2-(2-methoxypyridin-3-yl)-N-(4-(1-methyl-4-(trifluoromethyl)-1H-imidazol-2-yl)benzyl)-9-(tetrahydro-2H-pyran-2-yl)-9H-purin-6-amine], the inhibition at 10 µM in series [5] lay within 25 to 50%.

Take `COc1ncccc1-c1nc(NCc2ccc(-c3nc(C(F)(F)F)cn3C)cc2)c2[nH]cnc2n1` [Example 32, 2-(2-methoxypyridin-3-yl)-N-(4-(1-methyl-4-(trifluoromethyl)-1H-imidazol-2-yl)benzyl)-7H-purin-6-amine]: the inhibition at 10 µM is > 75% in series [1] and 50 to 75% in series [5].

For the compound `COc1ccncc1-c1nc(NCc2ccc(-c3nc(C(F)(F)F)cn3C)cc2)c2ncn(C3CCCCO3)c2n1` (stereo not drawn) [Example 33, 2-(4-methoxypyridin-3-yl)-N-(4-(1-methyl-4-(trifluoromethyl)-1H-imidazol-2-yl)benzyl)-9-(tetrahydro-2H-pyran-2-yl)-9H-purin-6-amine], the inhibition at 10 µM in series [5] was in the range of 50 to 75%.

As to `COc1ncnc(C2CC2)c1-c1nc(NCc2ccc(-c3cccnc3)cc2)c2[nH]cnc2n1` [Example 76, 2-(4-cyclopropyl-6-methoxypyrimidin-5-yl)-N-(4-(pyridin-3-yl)benzyl)-7H-purin-6-amine], the inhibition at 10 µM in series [5] lay in the range of 25 to 50%. The half-life at 1 μM in series [4] was determined as 10.1 min.

In turn, `COc1ncnc(C2CC2)c1-c1nc(NCc2ccc(-c3ccc(F)cn3)cc2)c2[nH]cnc2n1` [Example 77, 2-(4-cyclopropyl-6-methoxypyrimidin-5-yl)-N-(4-(5-fluoropyridin-2-yl)benzyl)-7H-purin-6-amine] had an inhibition at 10 µM in series [5] of 50 to 75%.

Take `Cc1cnc(-c2ccccc2C(C)C)nc1NCc1ccc(-n2ccnn2)cc1` [ML323, reference compound]: the half-life at 1 μM in series [4] turned out to be 7.58 min; in series [3] it was 30.3 min.
